Data set [1] has as its system ribonucleotide reductase M2 gene. Put plainly: Northern blot and nuclear run on of ribonucleotide reductase M2 in synchronized MCF-7 cells. In kind it is cell-based, human. To be noted: tamoxifen 48 hours, then 1 uM estradiol. The text has this:
(§1) In order to critically evaluate the function of BRCA1 gene inhibition on growth stimulation and cell cycle progression it was necessary to identify a gene whose expression is cell cycle regulated in human mammary cells. […] Because ribonucleotide reductase constitutes the rate limiting step in DNA synthesis, we reasoned that it might be cell cycle regulated in a synchronous growth model such as MCF-7 cells which can be growth arrested by tamoxifen and then restimulated by estrogen (Aitken et al. 1985, Arteaga et al. 1989). MCF-7 cells were growth arrested by tamoxifen for 48 hours and then stimulated at time zero (0) with 1 uM estradiol (+E) or control vehicle (−E).
FIG. 13A is a Northern blot of mRNA from synchronized MCF-7 cells. At the indicated time in hours, total cellular RNA was isolated and Northern blotting performed using the 1.6 Kb Eco RI fragment from our cloned human ribonucleotide reductase cDNA described above. Two mRNA species of 1.6 and 3.4 Kb are observed in these studies.
Con represents cells which were grown for 48 hours but not treated with tamoxifen.

A further data set has as its system MCF-7 cells. The experiment in a line: Nuclear labelling with tritiated thymidine in synchronized MCF-7 cells. In kind it is cell-based, human. The following applies: tamoxifen 48 hours, then 1 uM estradiol.
Excerpt: as §1

Another data set concerns BRCA1 mRNA. Put plainly: Nuclease protection assay of BRCA1 mRNA after antisense treatment. The format is cell-based, human. To be noted: compared with cells treated with sense control oligonucleotide; 40 uM, 4 days; lanes 9 and 10 FIG. 14 (primary mammary epithelial cells). How it is done:
(§2) Antisense inhibition is a useful strategy for studying gene expression which is dependent on expression of the antisense target gene (Robinson-Benion and Holt, in press, 1995), e.g. genes whose expression is directly or indirectly dependent on BRCA1 levels. […] A nuclease protection assay of mRNA derived from primary mammary epithelial cells (lanes 1-4, 9-10) or MCF-7 cells Oanes 5-8, 11-12) cultured for 4 days with antisense or control oligonucleotide was performed under the following conditions: no oligonucleotide (lanes 1 and 5); 40 uM antiBRCA1 (lanes 2,6,10,12); 4 uM antiBRCA1 (lanes 3 and 7); 40 uM sense control (lanes 4,8,9,11). Probes for BRCA1 and GAPD are as described for FIG. 10, and the ribonucleotide reductase M2 probe (RR) detects the 200 bp probe is described above.
(§3) Nuclease Protection Assays. PCR primers were derived from BRCA1 sequence in GenBank (Accession number U14680); forward 5′CAA TTG GGC AGA TGT GT 3′ (SEQ ID NO:50) and reverse 5′CTGGGGGATCTGGGGTATCA 3′ (SEQ ID NO:51) which amplify a 113 bp region from exon 24, corresponding to bases 5587 to 5699 of the human BRCA1. This region was selected because this exon has not been reported to be differentially spliced unlike more 5′ exons. […]
(§4) Antisense oligonucleotide studies. Unmodified deoxyribonucleotide were analyzed by gel electrophoresis and UV shadowing and shown to be homogenous and of appropriate size. […]

For data set [2], the system named is human primary mammary epithelial cells. The experiment in a line: Growth rate of primary mammary epithelial cells incubated with antisense or sense oligonucleotide. In kind it is cell-based. An excerpt: (§5) Unmodified 18 base deoxyribonucleotide complementary to the BRCA1 translation initiation site were synthesized and added to cultures of primary mammary epithelial cells (Stampfer et al. 1980) or MCF-7 breast cancer cells (Soule and McGrath, 1980). FIG. 12 is graph showing growth rate of human primary mammary epithelial cells (A), MCF-7 cells (B), retinal pigmented epithelial cells (C), cultured as described below. Points and bars represent the mean and the 95% confidence interval of triplicate counts of cells incubated with a single bolus of the indicated concentration of antisense or control sense deoxyribonucleotide.
Antisense oligonucleotide studies. Unmodified deoxyribonucleotide were analyzed by gel electrophoresis and UV shadowing and shown to be homogenous and of appropriate size. These oligonucleotide were purified by multiple lyophilization and solubilized in buffered media as described (Holt et al. 1988). Sequence of the unmodified antiBRCA1 oligonucleotide 5′AAG AGC AGA TAA ATC CAT 3′(SEQ ID NO: 52) and the complementary sense oligonucleotide 5′ATG GAT TTA TCT GCT CTT 3′ (SEQ ID NO:53) correspond to the presumed translation initiation site at bases […] of the GenBank sequence. The antisense oligonucleotide sequence was searched against GenBank and no significant homologies were identified to genes except BRCA1. Oligonucleotides were used according to our published methods (Holt et al. 1988). Primary mammary epithelial cells were cultured in serum-free medium supplemented with epidermal growth factor, insulin, hydrocortisone, ethanolamine, phosphorylethanolamine, and bovine pituitary extract. MCF-7 cells were cultured in Minimum Essential Medium Eagle (Modified) with Earle's salts and 2g/L sodium bicarbonate m supplemented with 2 mM L-glutamine, GMS-A (Gibco Cat. #680-1300AD), nonessential amino acids, and 2.5% fetal calf serum. Retinal pigmented perithelial cells were cultured in DMEM and 10% calf serum.

The subject of data set [3] is human retinal pigmented epithelial cells. Put plainly: Growth rate of retinal pigmented epithelial cells incubated with antisense or sense oligonucleotide. The format is cell-based. To be noted: 40 uM oligonucleotide, single bolus; FIG. 12C.
Excerpt: as §5
(§6) Antisense oligonucleotide studies. Unmodified deoxyribonucleotide were analyzed by gel electrophoresis and UV shadowing and shown to be homogenous and of appropriate size. These oligonucleotide were purified by multiple lyophilization and solubilized in buffered media as described (Holt et al. 1988). Sequence of the unmodified antiBRCA1 oligonucleotide 5′AAG AGC AGA TAA ATC CAT 3′(SEQ ID NO: 52) and the complementary sense oligonucleotide 5′ATG GAT TTA TCT GCT CTT 3′ (SEQ ID NO:53) correspond to the presumed translation initiation site at bases 12-137 of the GenBank sequence. The antisense oligonucleotide sequence was searched against GenBank and no significant homologies were identified to genes except BRCA1. […]

The subject of data set [4] is MCF-7 breast cancer cells. Put plainly: Growth rate of MCF-7 cells incubated with antisense or sense oligonucleotide. The format is cell-based, human. The following applies: 40 uM oligonucleotide, single bolus, FIG. 12B.
Excerpt: as §5, §6

The subject of data set [5] is ribonucleotide reductase M2 mRNA. Put plainly: Nuclease protection assay of ribonucleotide reductase M2 mRNA after antisense treatment, primary mammary epithelial cells. In kind it is cell-based, human. To be noted: 40 uM, cultured 4 days. How it is done: as §2, §3, §4
Data set [6] shares this test system. Put plainly: Nuclease protection assay of ribonucleotide reductase M2 mRNA after antisense treatment, MCF-7 cells. The following applies: 40 uM, cultured 4 days. The format is cell-based, human. How it is done:
as §2, §3, §4

Turning to `C[C@]12CC[C@@H]3c4ccc(O)cc4CC[C@H]3[C@@H]1CC[C@@H]2O` [estrogen, estradiol], the “transcription of the ribonucleotide reductase M2 gene” value in data set [1] was “induced”. For the same molecule, the DNA synthesis result with MCF-7 cells is “induction of synthesis”.

With `CC/C(=C(\c1ccccc1)c1ccc(OCCN(C)C)cc1)c1ccccc1` [tamoxifen], in data set [1], the “transcription of the ribonucleotide reductase M2 gene” value is recorded as “inhibited”. Further, the DNA synthesis result in the data set with MCF-7 cells is listed as “Inhibition of DNA synthesis”.

As for “anti-BRCA1 oligonucleotide: Unmodified 18 base deoxyribonucleotide complementary to the BRCA1 translation initiation site, 5′AAG AGC AGA TAA ATC CAT 3′ (SEQ ID NO: 52) (antisense AAGAGCAGATAAATCCAT; unmodified DNA)”, the “inhibition of BRCA1 mRNA levels” value with BRCA1 mRNA was 70-90%. Further, the “growth of normal mammary cells” value in data set [2] (40 uM oligonucleotide, single bolus, FIG. 12A) is given as “accelerated growth”. Further, the “morphologic appearance of the cell lines” value in data set [2] (addition of antisense oligonucleotide) is on record as “not noticeably changed”. Also, in data set [2] (addition of antisense oligonucleotide, dose not stated), the “proliferative rate of the cell lines” value is on record as “faster”. Besides, the cell growth rate result in data set [2] (intermediate dose, cell line not given) is listed as “less pronounced but significant increase”. Moreover, the “growth of human retinal pigmented epithelial cells” value in data set [3] is given as “did not affect the growth”. In addition, the “growth of malignant mammary cells” value in data set [4] was “accelerated growth”. Besides, the “ribonucleotide reductase mRNA levels” value in data set [5] and in data set [6] was “highest” in each case.

For the molecule “sense oligomer: Complementary sense control oligonucleotide with the same GC content, 5′ATG GAT TTA TCT GCT CTT 3′ (SEQ ID NO:53) (sense ATGGATTTATCTGCTCTT; further chemistry not given here) [reference compound]”, in data set [2] (10 fold excess of sense oligomer added to the anti-BRCA1 oligomer, cell line not specified), the “growth activation by anti-BRCA1 oligomer” value was “reversed the growth activation”. Also, the proliferation rate result in data set [2] (control oligomer with the same GC content, cell line not specified) is “did not increase the proliferation rate”.
